In US10308620B2, “Muscarinic M1 receptor positive allosteric modulators” (SUVEN LIFE SCIENCES LIMITED, priority 2015, dated 2019):
Where a name gives a salt, the structure may show the parent alone.

Molecular target: recombinant human Muscarinic M1 receptor (Homo sapiens (Human), UniProt P11229)
Assay: Allosteric potency EC50, CHO cells with pCRE-Luc reporter, in presence of EC20 of acetylcholine
Format: cell-based
Settings: 4 hours
Procedure: Determination of Allosteric Potency EC50 Values for Muscarinic M1 Receptor:
A stable CHO cell line expressing recombinant human Muscarinic M1 receptor and pCRE-Luc reporter system was used for cell-based assay. The assay offers a non-radioactive based approach to determine binding of a compound to GPCRs. In this specific assay, the level of intracellular cyclic AMP which is modulated by activation or inhibition of the receptor is measured. The recombinant cells harbor luciferase reporter gene under the control of cAMP response element.
The above cells were grown in 96 well clear bottom white plates in Hams F12 medium containing 10% fetal bovine serum (FBS). Prior to the addition of compounds or standard agonist, cells were serum starved overnight. Increasing concentrations of test compounds were added along with EC20 of acetylcholine in OptiMEM medium to the cells. The incubation was continued at 37° C. in CO2 incubator for 4 hours. Medium was removed and cells were washed with phosphate buffered saline. The cells were lysed and luciferase activity was measured in a Luminometer. Luminescence units were plotted against the compound concentrations using Graphpad software. EC50 values of the compounds were defined as the concentration required in stimulating the luciferase activity by 50% in presence of EC20 of acetylcholine.

Sequence of recombinant human Muscarinic M1 receptor (P11229 whole entry): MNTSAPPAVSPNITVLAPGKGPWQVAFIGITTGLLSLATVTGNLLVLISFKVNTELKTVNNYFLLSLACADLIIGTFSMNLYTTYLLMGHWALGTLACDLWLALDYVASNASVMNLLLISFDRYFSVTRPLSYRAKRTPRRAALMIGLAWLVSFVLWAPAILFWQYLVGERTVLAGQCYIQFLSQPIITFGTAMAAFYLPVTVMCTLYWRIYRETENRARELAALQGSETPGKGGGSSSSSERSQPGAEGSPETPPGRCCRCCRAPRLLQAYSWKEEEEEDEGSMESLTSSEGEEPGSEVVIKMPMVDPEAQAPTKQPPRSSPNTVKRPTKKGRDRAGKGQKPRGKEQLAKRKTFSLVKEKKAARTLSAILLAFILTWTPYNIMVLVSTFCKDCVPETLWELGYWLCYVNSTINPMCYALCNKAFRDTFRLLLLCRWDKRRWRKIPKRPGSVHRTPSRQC

| EC50 [nM] | Structure (SMILES) |
| --- | --- |
| 1520 | O=C(N[C@H]1CCCC[C@@H]1O)C1=CN(Cc2cccc(F)c2)c2ccccc2[S+]1[O-] (stereo partly drawn) [Example 95, N-(cis-1S,2S-2-Hydroxycyclohexyl)-4-{3-fluorobenzyl}-1-oxo-4H-benzo[1,4]thiazine-2-carboxamide] |
| 179 | O=C(N[C@H]1CCCC[C@@H]1O)C1=CN(Cc2ccncc2)c2cccc(F)c2O1 [Example 57, N-(cis-1S,2S-2-Hydroxycyclohexyl)-4-(pyridin-4-ylmethyl)-8-fluoro-4H-benzo[1,4]oxazine-2-carboxamide] |
| 1520 | O=C(N[C@H]1CCCC[C@@H]1O)C1=CN(Cc2ccncc2F)c2ccccc2O1 [Example 34, N-(cis-1S,2S-2-Hydroxycyclohexyl)-4-(3-fluoropyridin-4-ylmethyl)-4H-benzo[1,4]oxazine-2-carboxamide] |
| 230 | O=C(N[C@H]1CCCC[C@@H]1O)C1=CN(Cc2ccnc(-c3ccccc3)c2)c2cccc(F)c2O1 [Example 53, N-(cis-1S,2S-2-Hydroxycyclohexyl)-4-(2-phenylpyridin-4-ylmethyl)-8-fluoro-4H-benzo[1,4]oxazine-2-carboxamide] |
| 88 | O=C(N[C@H]1CCCC[C@@H]1O)C1=CN(Cc2ccnc(Cl)c2)c2cccc(F)c2O1 [Example 54, N-(cis-1S,2S-2-Hydroxycyclohexyl)-4-(2-chloropyridin-4-ylmethyl)-8-fluoro-4H-benzo[1,4]oxazine-2-carboxamide] |
| 412 | O=C(NC1CCNCC1O)C1=CN(Cc2ccccc2F)c2ccccc2O1 (centres unmarked) [Example 76, N-(3-Hydroxypiperidin-4-yl)-4-(2-fluorobenzyl)-4H-benzo[1,4]oxazine-2-carboxamide trifluoroacetate] |
| 117 | O=C(N[C@H]1CCCC[C@@H]1O)C1=CN(Cc2cccc(F)c2F)c2ccccc2S1 [Example 85, N-(cis-1S,2S-2-Hydroxycyclohexyl)-4-(2,3-difluorobenzyl)-4H-benzo[1,4]thiazine-2-carboxamide] |
| 160 | O=C(NC1CCNCC1O)C1=CN(Cc2cccc(F)c2F)c2cccc(F)c2O1 (centres unmarked) [Example 75, N-(3-Hydroxypiperidin-4-yl)-4-(2,3-difluorobenzyl)-8-fluoro-4H-benzo[1,4]oxazine-2-carboxamide trifluoroacetate] |
| 911 | O=C(N[C@H]1CCCC[C@@H]1O)C1=CN(Cc2ccccn2)c2ccccc2O1 [Example 25, N-(cis-1S,2S-2-Hydroxycyclohexyl)-4-(pyridin-2-ylmethyl)-4H-benzo[1,4]oxazine-2-carboxamide] |
| 2160 | O=C(N[C@H]1CCCC[C@@H]1O)C1=CN(Cc2ccccn2)c2ccccc2[S+]1[O-] (stereo partly drawn) [Example 96, N-(cis-1 S, 2S-2-Hydroxycyclohexyl)-4-{pyridin-2-ylmethyl}-1-oxo-4H-benzo[1,4]thiazine-2-carboxamide] |
| 1510 | COc1cc(CN2C=C(C(=O)NCC(C)(C)O)Oc3ccccc32)ccn1 [Example 12, N-(2-Hydroxy-2-methylpropyl)-4-(2-methoxypyridin-4-ylmethyl)-4H-benzo[1,4]oxazine-2-carboxamide] |
| 1340 | Cc1cc(-c2cc(CN3C=C(C(=O)N[C@H]4CCCC[C@@H]4O)Oc4ccccc43)ccn2)cnc1F [Example 58, N-(cis-1S,2S-2-Hydroxycyclohexyl)-4-(6′-fluoro-5′-methyl-[2,3′]bipyridinyl-4-ylmethyl)-4H-benzo[1,4]oxazine-2-carboxamide] |
| 686 | O=C(N[C@@H]1CCC[C@H]1O)C1=CN(Cc2cccc(F)c2F)c2cccc(F)c2O1 [Example 42, N-(trans-1R,2R-2-Hydroxycyclopentyl)-4-(2,3-difluorobenzyl)-8-fluoro-4H-benzo[1,4]oxazine-2-carboxamide] |
| 1530 | O=C(N[C@@H]1CCC[C@H]1O)C1=CN(Cc2ccccc2F)c2ccccc2O1 [Example 40, N-(trans-1R,2R-2-Hydroxycyclopentyl)-4-(2-fluorobenzyl)-4H-benzo[1,4]oxazine-2-carboxamide] |
| 1350 | O=C(N[C@H]1CCCC[C@@H]1O)C1=CN(Cc2ccnc(-c3ccccc3)c2)c2ccccc2O1 [Example 52, N-(cis-1S,2S-2-Hydroxycyclohexyl)-4-(2-phenylpyridin-4-ylmethyl)-4H-benzo[1,4]oxazine-2-carboxamide] |
| 828 | O=C(N[C@H]1CCCC[C@@H]1O)C1=CN(Cc2ccccc2F)c2c(F)cccc2O1 [Example 55, N-(cis-1S,2S-2-Hydroxycyclohexyl)-4-(2-fluorobenzyl)-5-fluoro-4H-benzo[1,4]oxazine-2-carboxamide] |
| 2100 | O=C(NC1CCNCC1F)C1=CN(Cc2cccc(F)c2F)c2cccc(F)c2O1 (centres unmarked) [Example 74, N-(3-Fluoropiperidin-4-yl)-4-(2,3-difluorobenzyl)-8-fluoro-4H-benzo[1,4]oxazine-2-carboxamide hydrochloride] |

| Structure (SMILES) | EC50 [nM] |
| --- | --- |
| O=C(N[C@H]1CCCC[C@@H]1O)C1=CN(Cc2ccccc2F)c2c(F)ccc(F)c2O1 [Example 61, N-(cis-1S,2S-2-Hydroxycyclohexyl)-4-(2-fluorobenzyl)-5,8-difluoro-4H-benzo[1,4]oxazine-2-carboxamide] | 219 |
| CC(C)C(CO)NC(=O)C1=CN(Cc2ccccc2F)c2cccc(F)c2O1 (centres unmarked) [Example 47, N-(1-Hydroxymethyl-2-methylpropyl)-4-(2-fluorobenzyl)-8-fluoro-4H-benzo[1,4]oxazine-2-carboxamide] | 1320 |
| O=C(N[C@H]1CCCC[C@@H]1O)C1=CN(Cc2cccc(F)c2F)c2cccc(F)c2O1 [Example 29, N-(cis-1S,2S-2-Hydroxycyclohexyl)-4-(2,3-difluorobenzyl)-8-fluoro-4H-benzo[1,4]oxazine-2-carboxamide] | 140 |
| O=C(N[C@H]1CCCC[C@@H]1O)C1=CN(Cc2cccc(F)c2)c2ccccc2S1 [Example 86, N-(cis-1S,2S-2-Hydroxycyclohexyl)-4-(3-fluorobenzyl)-4H-benzo[1,4]thiazine-2-carboxamide] | 936 |
| O=C(Nc1ccccc1CO)C1=CN(Cc2cccc(F)c2F)c2ccccc2O1 [Example 45, N-(2-Hydroxymethylphenyl)-4-(2,3-difluorobenzyl)-4H-benzo[1,4]oxazine-2-carboxamide] | 1580 |
| CC(C)(O)CNC(=O)C1=CN(Cc2ccc(F)cc2)c2ccccc2O1 [Example 14, N-(2-Hydroxy-2-methylpropyl)-4-(4-fluorobenzyl)-4H-benzo[1,4]oxazine-2-carboxamide] | 1360 |
